What was measured:
[1] = tested on: Echinochloa oryzoides (Ard.) Fritsch.; test: Preemergence weed control under flooded paddy conditions, ECHORC (Watergrass (Calif.)); format: in vivo; conditions: flooded paddy, rated three to four weeks after treatment; as to herbicidal effect rating, ECHORC: meaning of each grade not given here
Cyperus iria = test: Preemergence weed control under flooded paddy conditions, CYPIR (Rice Flatsedge); format: in vivo; conditions: flooded paddy, rated three to four weeks after treatment; for CYPIR herbicidal effect rating / CYPIR herbicidal rating: preemergence; for herbicidal effect rating, CYPIR: preemergence weeds; as to herbicidal effect rating, CYPIR: meaning of each grade not given here
[2] = tested on: Oryza sativa, (L.) Tebonnet; test: Rice tolerance to post-transplant applications under flooded paddy conditions (Example 187), ORYSAT (Rice, Tebonnet); conditions: rated three to four weeks after treatment
[3] = tested on: Monochoria vaginalis, Presl.; test: Preemergence weed control under flooded paddy conditions, MOOVA (Monochoria); format: in vivo; conditions: flooded paddy, rated three to four weeks after treatment; for MOOVA herbicidal effect rating / MOOVA herbicidal rating: preemergence; for herbicidal effect rating, MOOVA: preemergence weeds; as to herbicidal effect rating, MOOVA: meaning of each grade not given here
Sagittaria pygmaea, L. = test: Preemergence weed control under flooded paddy conditions, SAGPY (Arrowhead (Pygmaea)); format: in vivo; conditions: flooded paddy, rated three to four weeks after treatment; for SAGPY herbicidal effect rating / SAGPY herbicidal rating: preemergence; for herbicidal effect rating, SAGPY: preemergence weeds; as to herbicidal effect rating, SAGPY: meaning of each grade not given here
[4] = Rate 0.0620 kg/ha, preemergence
[5] = Rate 0.1250 kg/ha, preemergence
[6] = Rate 0.2500 kg/ha, preemergence

In the case of `Cn1c(C(F)(F)F)cc(=O)n(-c2ccc3snc(/C=C/C=O)c3c2)c1=O` [Example 291, 1,2-Benzisothiazole-3-acrylaldehyde, 5-[3,6-dihydro-3-methyl-2,6-dioxo-4-(trifluoromethyl)-1(2H)-pyrimidinyl]-, (E)-], the “ECHORC herbicidal effect rating” value ([1]; Rate 0.0320 kg/ha, preemergence) is reported as 0.0, the “ECHORC herbicidal effect rating” value [1, 4] is reported as 0.0 and the “ECHORC herbicidal effect rating” value [1, 5] is reported as 0.0. The “ECHORC herbicidal effect rating” value [1, 6] was 0.0, the “CYPIR herbicidal effect rating” value (Cyperus iria; Rate 0.0320 kg/ha) was 0.0 and the “CYPIR herbicidal effect rating” value (Cyperus iria; Rate 0.0620 kg/ha) was 0.0. The “CYPIR herbicidal effect rating” value (Cyperus iria; Rate 0.1250 kg/ha) was 9.0, the “CYPIR herbicidal effect rating” value (Cyperus iria; Rate 0.2500 kg/ha) was 9.0 and the “ORYSAT herbicidal effect rating” value ([2]; Rate 0.0320 kg/ha) was 0.0. For the same compound, the “ORYSAT herbicidal effect rating” value ([2]; Rate 0.0620 kg/ha) was 0.0, the “ORYSAT herbicidal effect rating” value ([2]; Rate 0.1250 kg/ha) was 0.0 and the “ORYSAT herbicidal effect rating” value ([2]; Rate 0.2500 kg/ha) was 0.0. The “MOOVA herbicidal effect rating” value ([3]; Rate 0.0320 kg/ha) was 0.0, the “MOOVA herbicidal effect rating” value ([3]; Rate 0.0620 kg/ha) was 9.0 and the “MOOVA herbicidal effect rating” value ([3]; Rate 0.1250 kg/ha) was 9.0. The “MOOVA herbicidal effect rating” value ([3]; Rate 0.2500 kg/ha) was 9.0, the “SAGPY herbicidal effect rating” value (Sagittaria pygmaea, L.; Rate 0.0320 kg/ha) was 0.0 and the “SAGPY herbicidal effect rating” value (Sagittaria pygmaea, L.; Rate 0.0620 kg/ha) was 0.0. For the same compound, the “SAGPY herbicidal effect rating” value (Sagittaria pygmaea, L.; Rate 0.1250 kg/ha) was 0.0 and the “SAGPY herbicidal effect rating” value (Sagittaria pygmaea, L.; Rate 0.2500 kg/ha) was 0.0.

With `CNC.Cn1c(C(F)(F)F)cc(=O)n(-c2ccc3snc(COCC(=O)NS(C)(=O)=O)c3c2)c1=O` [Example 295, Acetamide, 2-{{5-[3,6-dihydro-3-methyl-2,6-dioxo-4-(trifluoromethyl)-1(2H)-pyrimidinyl]-1,2-benzisothiazol-3-yl}methoxy}-N-(methylsulfonyl)-, dimethylamine salt] the “ECHORC herbicidal effect rating” value [1, 4] was 0.0, the “ECHORC herbicidal effect rating” value [1, 5] was 0.0 and the “ECHORC herbicidal effect rating” value [1, 6] was 0.0. The “CYPIR herbicidal effect rating” value (Cyperus iria; Rate 0.0620 kg/ha) was 0.0, the “CYPIR herbicidal effect rating” value (Cyperus iria; Rate 0.1250 kg/ha) was 9.0 and the “CYPIR herbicidal effect rating” value (Cyperus iria; Rate 0.2500 kg/ha) was 9.0. The “ORYSAT herbicidal effect rating” value ([2]; Rate 0.0620 kg/ha) was 0.0, the “ORYSAT herbicidal effect rating” value ([2]; Rate 0.1250 kg/ha) was 0.0 and the “ORYSAT herbicidal effect rating” value ([2]; Rate 0.2500 kg/ha) was 0.0. For the same compound, the “MOOVA herbicidal effect rating” value ([3]; Rate 0.0620 kg/ha) was 0.0, the “MOOVA herbicidal effect rating” value ([3]; Rate 0.1250 kg/ha) was 9.0 and the “MOOVA herbicidal effect rating” value ([3]; Rate 0.2500 kg/ha) was 9.0. For the same compound, the “SAGPY herbicidal effect rating” value (Sagittaria pygmaea, L.; Rate 0.0620 kg/ha) was 0.0, the “SAGPY herbicidal effect rating” value (Sagittaria pygmaea, L.; Rate 0.1250 kg/ha) was 0.0 and the “SAGPY herbicidal effect rating” value (Sagittaria pygmaea, L.; Rate 0.2500 kg/ha) was 6.0.

`Cn1c(C(F)(F)F)cc(=O)n(-c2cc3c(C(=O)NS(=O)(=O)Cc4ccccc4)nsc3cc2F)c1=O` [Example 482, 1,2-Benzisothiazole-3-carboxamide, N-(benzylsulfonyl)-5-[3,6-dihydro-3-methyl-2,6-dioxo-4-(trifluoromethyl)-1(2H)-pyrimidinyl]-6-fluoro-] showed an ECHORC herbicidal rating ([1]; 0.0320 kg/ha, preemergence) of 4.0, an ECHORC herbicidal rating ([1]; 0.0620 kg/ha, preemergence) of 7.0 and an ECHORC herbicidal rating ([1]; 0.1250 kg/ha, preemergence) of 9.0. It also gave an ECHORC herbicidal rating ([1]; 0.2500 kg/ha, preemergence) of 9.0, a CYPIR herbicidal rating (Cyperus iria; 0.0320 kg/ha) of 0.0 and a CYPIR herbicidal rating (Cyperus iria; 0.0620 kg/ha) of 0.0. For the same compound, the CYPIR herbicidal rating (Cyperus iria; 0.1250 kg/ha) was 0.0, the CYPIR herbicidal rating (Cyperus iria; 0.2500 kg/ha) was 6.0 and the “ORYSAT herbicidal rating (rice tolerance)” value (shortened to “ORYSAT herbicidal rating”) ([2]; 0.0320 kg/ha) was 0.0. The “ORYSAT herbicidal rating” value ([2]; 0.0620 kg/ha) was 2.0, the “ORYSAT herbicidal rating” value ([2]; 0.1250 kg/ha) was 6.0 and the “ORYSAT herbicidal rating” value ([2]; 0.2500 kg/ha) was 7.0. The MOOVA herbicidal rating ([3]; 0.0320 kg/ha) was 4.0, the MOOVA herbicidal rating ([3]; 0.0620 kg/ha) was 5.0 and the MOOVA herbicidal rating ([3]; 0.1250 kg/ha) was 6.0. For the same compound, the MOOVA herbicidal rating ([3]; 0.2500 kg/ha) was 7.0, the SAGPY herbicidal rating (Sagittaria pygmaea, L.; 0.0320 kg/ha) was 3.0 and the SAGPY herbicidal rating (Sagittaria pygmaea, L.; 0.0620 kg/ha) was 4.0. The SAGPY herbicidal rating (Sagittaria pygmaea, L.; 0.1250 kg/ha) was 5.0 and the SAGPY herbicidal rating (Sagittaria pygmaea, L.; 0.2500 kg/ha) was 7.0.

In the case of `CNC.Cn1c(C(F)(F)F)cc(=O)n(-c2ccc3snc(CSCC(=O)O)c3c2)c1=O` [Example 299, Acetic acid, {{{5-[3,6-dihydro-3-methyl-2,6-dioxo-4-(trifluoromethyl)-1(2H)-pyrimidinyl)-1,2-benzisothiazol-3-yl}methyl}thio}-, dimethylamine salt], the “herbicidal effect rating, ECHORC” value ([1]; Rate 0.0320 kg/ha, preemergence weeds) is reported as 0.0, the “herbicidal effect rating, ECHORC” value ([1]; Rate 0.0620 kg/ha, preemergence weeds) is reported as 0.0 and the “herbicidal effect rating, ECHORC” value ([1]; Rate 0.1250 kg/ha, preemergence weeds) is reported as 2.0. For the same compound, the “herbicidal effect rating, ECHORC” value ([1]; Rate 0.2500 kg/ha, preemergence weeds) was 5.0, the “herbicidal effect rating, CYPIR” value (Cyperus iria; Rate 0.0320 kg/ha) was 3.0 and the “herbicidal effect rating, CYPIR” value (Cyperus iria; Rate 0.0620 kg/ha) was 7.0. For the same compound, the “herbicidal effect rating, CYPIR” value (Cyperus iria; Rate 0.1250 kg/ha) was 9.0, the “herbicidal effect rating, CYPIR” value (Cyperus iria; Rate 0.2500 kg/ha) was 9.0 and the “herbicidal effect rating ORYSAT” value ([2]; Rate 0.0320 kg/ha) was 0.0. For the same compound, the “herbicidal effect rating ORYSAT” value ([2]; Rate 0.0620 kg/ha) was 0.0, the “herbicidal effect rating ORYSAT” value ([2]; Rate 0.1250 kg/ha) was 3.0 and the “herbicidal effect rating ORYSAT” value ([2]; Rate 0.2500 kg/ha) was 5.0. The “herbicidal effect rating, MOOVA” value ([3]; Rate 0.0320 kg/ha) was 7.0, the “herbicidal effect rating, MOOVA” value ([3]; Rate 0.0620 kg/ha) was 9.0 and the “herbicidal effect rating, MOOVA” value ([3]; Rate 0.1250 kg/ha) was 9.0. The “herbicidal effect rating, MOOVA” value ([3]; Rate 0.2500 kg/ha) was 9.0, the “herbicidal effect rating, SAGPY” value (Sagittaria pygmaea, L.; Rate 0.0320 kg/ha) was 0.0 and the “herbicidal effect rating, SAGPY” value (Sagittaria pygmaea, L.; Rate 0.0620 kg/ha) was 0.0. The “herbicidal effect rating, SAGPY” value (Sagittaria pygmaea, L.; Rate 0.1250 kg/ha) was 3.0 and the “herbicidal effect rating, SAGPY” value (Sagittaria pygmaea, L.; Rate 0.2500 kg/ha) was 7.0.

In the case of `Cn1c(C(F)(F)F)cc(=O)n(-c2ccc3snc(Br)c3c2)c1=O` [Example 36, 3-(3-Bromo-1,2-benzisothiazol-5-yl)-1-methyl-6-(trifluoromethyl)-2,4(1H,3H)-pyrimidinedione], the “herbicidal effect rating, ECHORC” value ([1]; 0.0313 kg/ha, preemergence) is reported as 0.0, the “herbicidal effect rating, ECHORC” value ([1]; 0.0625 kg/ha, preemergence) is reported as 0.0 and the “herbicidal effect rating, ECHORC” value ([1]; 0.1250 kg/ha, preemergence) is reported as 0.0. For the same compound, the “herbicidal effect rating, ECHORC” value ([1]; 0.2500 kg/ha, preemergence) was 0.0, the “herbicidal effect rating, ORYSAT (rice tolerance)” value (from here on “herbicidal effect rating, ORYSAT”) ([2]; 0.0313 kg/ha) was 1.0 and the “herbicidal effect rating, ORYSAT” value ([2]; 0.0625 kg/ha) was 1.0. For the same compound, the “herbicidal effect rating, ORYSAT” value ([2]; 0.1250 kg/ha) was 1.0 and the “herbicidal effect rating, ORYSAT” value ([2]; 0.2500 kg/ha) was 1.0.

`Cc1ccc(OCC(=O)OC(C)C(C)(C)C)c(-c2nsc3ccc(-n4c(=O)cc(C(F)(F)F)n(C)c4=O)cc23)c1` (centres unmarked) [Example 85, 1,2,2-Trimethylpropyl {{2-{5-[3,6-dihydro-3-methyl-2,6-dioxo-4-(trifluoromethyl)-1(2H)-pyrimidinyl]-1,2-benzisothiazol-3-yl}-p-tolyl}oxy}acetate] was tested, and the “herbicidal effect rating, ECHORC” value ([1]; 0.0313 kg/ha, preemergence) was 8.0, the “herbicidal effect rating, ECHORC” value ([1]; 0.0625 kg/ha, preemergence) was 9.0 and the “herbicidal effect rating, ECHORC” value ([1]; 0.1250 kg/ha, preemergence) was 9.0. For the same compound, the “herbicidal effect rating, ECHORC” value ([1]; 0.2500 kg/ha, preemergence) was 9.0, the “herbicidal effect rating, ORYSAT” value ([2]; 0.0313 kg/ha) was 0.0 and the “herbicidal effect rating, ORYSAT” value ([2]; 0.0625 kg/ha) was 0.0. The “herbicidal effect rating, ORYSAT” value ([2]; 0.1250 kg/ha) was 0.0 and the “herbicidal effect rating, ORYSAT” value ([2]; 0.2500 kg/ha) was 1.0.

In the case of `Cn1c(C(F)(F)F)cc(=O)n(-c2ccc3snc(Cl)c3c2)c1=O` [Example 37, 3-(3-Chloro-1,2-benzisothiazol-5-yl)-1-methyl-6-(trifluoromethyl)-2,4(1H,3H)-pyrimidinedione], the “herbicidal effect rating, ECHORC” value ([1]; 0.0313 kg/ha, preemergence) is reported as 4.0, the “herbicidal effect rating, ECHORC” value ([1]; 0.0625 kg/ha, preemergence) is reported as 7.0 and the “herbicidal effect rating, ECHORC” value ([1]; 0.1250 kg/ha, preemergence) is reported as 8.0. The “herbicidal effect rating, ECHORC” value ([1]; 0.2500 kg/ha, preemergence) was 9.0, the “herbicidal effect rating, ORYSAT” value ([2]; 0.0313 kg/ha) was 0.0 and the “herbicidal effect rating, ORYSAT” value ([2]; 0.0625 kg/ha) was 1.0. The “herbicidal effect rating, ORYSAT” value ([2]; 0.1250 kg/ha) was 1.0 and the “herbicidal effect rating, ORYSAT” value ([2]; 0.2500 kg/ha) was 1.0.

`Cn1c(C(F)(F)F)cc(=O)n(-c2ccc3snc(CP(=O)(O)O)c3c2)c1=O` [Example 92, {{5-[3,6-Dihydro-3-methyl-2,6-dioxo-4-(trifluoromethyl)-1(2H)-pyrimidinyl]-1,2-benzisothiazol-3-yl}methyl}phosphonic acid] was tested, and the “herbicidal effect rating, ECHORC” value ([1]; 0.0313 kg/ha, preemergence) was 4.0, the “herbicidal effect rating, ECHORC” value ([1]; 0.0625 kg/ha, preemergence) was 6.0 and the “herbicidal effect rating, ECHORC” value ([1]; 0.1250 kg/ha, preemergence) was 9.0. For the same compound, the “herbicidal effect rating, ECHORC” value ([1]; 0.2500 kg/ha, preemergence) was 9.0, the “herbicidal effect rating, ORYSAT” value ([2]; 0.0313 kg/ha) was 3.0 and the “herbicidal effect rating, ORYSAT” value ([2]; 0.0625 kg/ha) was 5.0. The “herbicidal effect rating, ORYSAT” value ([2]; 0.1250 kg/ha) was 6.0 and the “herbicidal effect rating, ORYSAT” value ([2]; 0.2500 kg/ha) was 6.0.

— patent publication EP0908457B1, “3-(1,2-benzisothiazol- and isoxazol-5-Y1)-2,4(1H,3H)-pyrimidinedione or thione and 3-(1,2-benzisothiazol- and isoxazol-5-y1)-4(3H)-pyrimidinone or thione herbicidal agents” (BASF AKTIENGESELLSCHAFT, priority 1997, dated 1999)
